The values that follow come from US5262417A, “Antibacterial quinolone compounds” (The Upjohn Company, priority 1991, dated 1993).

Holding throughout (assay type): cell-based
Experiment [1] concerns Escherichia coli UC 51 (EC). Description: Dip disk (disk-diffusion) assay, disks loaded with 0.05 ml. Particulars: Escherichia coli, UC51, 0.05 ml per disk, read-out: Growth Inhibition zone, EC; for zone of inhibition at 0.1 µg/mL: 0.1 mcg/ml; for zone of inhibition at 1 µg/mL: 1.0 mcg/ml. How it is done: (§1) The effectiveness of the subject compounds on bacteria were obtained by performing a dip disk assay. The antibacterial activity of the compounds was determined by the disk-diffusion method. Paper disks (12.7 mm) were loaded with 0.05 ml of drug solution prepared at a concentration of 0.1 mcg/ml; the disks were allowed to air dry. They were then applied to the surface of microorganism-seeded agar assay trays, which contained the bacterial strain Pseudomonas aeruginosa UC 95 (PA), Escherichia coli UC 51 (EC), Klebsiella pneumoniae UC 57 (KP), or Staphylococcus aureus UC 80 (SA). The assay trays were incubated overnight under aerobic condition to allow for the growth of the organisms. Zones of growth inhibition due to the action of the antibiotic were then measured to the nearest millimeter.
(§2) The effectiveness of additional compounds 5-9, (5-7 are Formula IAa compounds and 8 and 9 are Formula IAb compounds) on bacteria were obtained by performing a dip disk assay as described above. The antibacterial activity of the compounds was determined by the disk-diffusion method where the disks were loaded with 0.05 ml of drug solution prepared at a concentration of 1.0 mcg/ml; the disks were allowed to air dry.

Experiment [2] has as its system Pseudomonas aeruginosa UC 95 (PA). The description is as above. The following applies: Pseudomonas aeruginosa, UC95, 0.05 ml per disk, read-out: Growth Inhibition zone, PA; for zone of inhibition at 0.1 µg/mL: 0.1 mcg/ml; for zone of inhibition at 1 µg/mL: 1.0 mcg/ml. How it is done:
as §1, §2

Experiment [3] relates to Staphylococcus aureus UC 80 (SA). The description is as above. Particulars: Staphylococcus aureus, UC80, 0.05 ml per disk, read-out: Growth Inhibition zone, SA; for zone of inhibition at 0.1 µg/mL: 0.1 mcg/ml; for zone of inhibition at 1 µg/mL: 1.0 mcg/ml. On the procedure: as §1, §2
In experiment [4] the test system is Klebsiella pneumoniae UC 57 (KP). The description is as above. Particulars: Klebsiella pneumoniae, UC57, 0.05 ml per disk, read-out: Growth Inhibition zone, KP; for zone of inhibition at 0.1 µg/mL: 0.1 mcg/ml; for zone of inhibition at 1 µg/mL: 1.0 mcg/ml. How it is done:
as §1, with “Paper disks (12.7 mm) were loaded with 0.05 ml of drug solution prepared at a concentration of 0.1 mcg/ml; the disks were allowed to air dry.” left out, “millimeter. […]” for “millimeter.”

For a further experiment, the system named is Enterobacter cloacae. Put plainly: Minimum inhibitory concentration (MIC) by agar dilution. The following applies: 20 h, read-out: MINIMUM INHIBITORY CONCENTRATION
The essentials: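 Bacteria grown overnight at 35 °C, adjusted to 0.5 McFarland in TSB, diluted 1:20 and spotted at 1 μl per spot by replicator.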

Experiment [5] deals with Acinetobacter calcoaceticus. Described as above. The following applies: Acinetobacter calcoaceticus, 20 h, read-out: MINIMUM INHIBITORY CONCENTRATION, Cult No. 12170, MHA. In a few lines: (§3)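 Agar dilution per NCCLS guidance: compounds serially diluted into unsupplemented Mueller Hinton agar at 47 °C. Bacteria grown overnight at 35 °C, adjusted in TSB to 0.5 McFarland, diluted 1:20 and spotted with a Steers replicator; MIC is the lowest inhibitory concentration.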

The test system of the next experiment is Citerobacter freundii. The description is as above. The following applies: 20 h, read-out: MINIMUM INHIBITORY CONCENTRATION
The essentials: as §3

The subject of the next experiment is Escherichia coli. The experiment is described as above. The following applies: Escherichia coli, 20 h. In a few lines: as §3
A further experiment concerns Klebsiella pneumoniae. Described as above. The following applies: 20 h, read-out: MINIMUM INHIBITORY CONCENTRATION
The essentials: as §3

For the next experiment, the system named is Proteus penneri. The experiment is described as above. The following applies: Proteus penneri, 20 h, read-out: MINIMUM INHIBITORY CONCENTRATION, Cult No. 9679, MHA. The essentials: as §3
A further experiment relates to Pseudomonas aeruginosa. The experiment is described as above. Particulars: Pseudomonas aeruginosa, 20 h. In a few lines: as §3
The next experiment relates to Serratia marcescens. The experiment is described as above. Particulars: 20 h, read-out: MINIMUM INHIBITORY CONCENTRATION
In a few lines:
as §3

For the next experiment, the system named is Staphylococcus aureus. Described as above. The following applies: Staphylococcus aureus, 20 h. The essentials: as §3
Experiment [6] deals with Staphylococcus epidermidis. The description is as above. The following applies: 20 h, read-out: MINIMUM INHIBITORY CONCENTRATION
In a few lines: as §3

For a further experiment, the system named is Streptococcus faecalis. The description is as above. The following applies: Enterococcus faecalis, 20 h, read-out: MINIMUM INHIBITORY CONCENTRATION
In a few lines: as §3

The next experiment relates to Streptococcus pneumoniae. The experiment is described as above. The following applies: Streptococcus pneumoniae, 20 h, read-out: MINIMUM INHIBITORY CONCENTRATION, Cult No. 41, MHA. In a few lines:
as §3

The subject of another experiment is Streptococcus pyogenes. Described as above. The following applies: Streptococcus pyogenes, 20 h, read-out: MINIMUM INHIBITORY CONCENTRATION, Cult No. 152, MHA. The essentials:
as §3

Where [7] appears, read: read-out: MINIMUM INHIBITORY CONCENTRATION, Cult No. 6674, MHA.
[8] abbreviates: read-out: MINIMUM INHIBITORY CONCENTRATION, Cult No. 9451, MHA.
Setting [9] is: read-out: MINIMUM INHIBITORY CONCENTRATION, Cult No. 9855, MHA.
Setting [10] is: read-out: MINIMUM INHIBITORY CONCENTRATION, Cult No. 9952, MHA.
[11] abbreviates: read-out: MINIMUM INHIBITORY CONCENTRATION, Cult No. 6676, MHA.
Where [12] appears, read: read-out: MINIMUM INHIBITORY CONCENTRATION, Cult No. 9191, MHA.
[13] abbreviates: read-out: MINIMUM INHIBITORY CONCENTRATION, Cult No. 12120, MHA.
[14] abbreviates: read-out: MINIMUM INHIBITORY CONCENTRATION, Cult No. 6685, MHA.
[15] abbreviates: read-out: MINIMUM INHIBITORY CONCENTRATION, Cult No. 9213, MHA.
The mark [16] stands for this setting: read-out: MINIMUM INHIBITORY CONCENTRATION, Cult No. 9218, MHA.
Where [17] appears, read: read-out: MINIMUM INHIBITORY CONCENTRATION, Cult No. 9271, MHA.

Structures are written as SMILES. In brackets after ≈: the same amount, converted by molar mass. Where two headings read alike, the source gives them in different places.

Turning to `COC(=O)C=C(C(=O)OC)N1CCN(c2cc3c(cc2F)c(=O)c(C(=O)O)cn3C2CC2)CC1` [Compound 3, 2-[4-(1-Cyclopropyl-3-carboxy-6-fluoro-1,4-dihydro-4-oxo-7-quinolinyl)-1-piperazinyl]2-butenedioic acid, dimethyl ester], the zone of inhibition at 0.1 µg/mL in experiment [1] turned out to be 29 mm; in [2], 36 mm; in experiment [3] it was 25 mm; in experiment [4], 29 mm.

`COC(=O)C/C=C(\C(=O)OC)N1CCN(c2c(F)cc3c(=O)c(C(=O)O)cn(C4CC4)c3c2F)CC1` [Compound 4, 2-[4-(3-carboxy-1-cyclopropyl-6,8-difluoro-1,4-dihydro-4-oxo-4-oxo-7-quinolinyl)-1-piperazineyl]-2-pentenedioic acid-(E)-1,5-dimethyl ester]: the zone of inhibition at 0.1 µg/mL worked out at 27 mm in [1], 33 mm in [2], 28 mm in [3] and 33 mm in experiment [4].

Take `COC(=O)/C=C(\C(=O)OC)N1CCN(c2c(F)c(N)c3c(=O)c(C(=O)O)cn(C4CC4)c3c2F)CC1` [Compound 5, 2-[4-(5-amino-3-carboxy-1-cyclopropyl-6,8-difluoro-1,4-dihydro-4-oxo-7-quinolinyl)-1-piperazinyl]-2-butenedioic acid, (E)-1,4-dimethyl ester]: the zone of inhibition at 1 µg/mL in [1] is 24 mm; in experiment [2], 27 mm; in experiment [3], 27 mm; in experiment [4], 28 mm.

For the compound `COC(=O)/C=C(\C(=O)OC)N1CCN(c2c(F)cc3c(=O)c(C(=O)O)cn(C4CCC4)c3c2F)CC1` [Compound 6, 2-[4-(3-carboxy-1-cyclobutyl-6,8-difluuoro-1,4-dihydro-4-oxo-7-quinolinyl)-1-piperazinyl]-2-butenedioic acid (E)-1,4-dimethyl ester], the zone of inhibition at 1 µg/mL in [1] was 24 mm; in [2], 16 mm; in [3] it was 22 mm; in experiment [4] it was 26 mm.

Take `COC(=O)/C=C(\C(=O)OC)N1CCN(c2c(F)cc3c(=O)c(C(=O)O)cn(-c4ccc(F)cc4)c3c2F)CC1` [Compound 7]: the zone of inhibition at 1 µg/mL in [1] came out at 24 mm; in [2], 15 mm; in [3], 22 mm; in experiment [4], 26 mm.

As to `COC(=O)/C=C(/NC1CCN(c2c(F)cc3c(=O)c(C(=O)O)cn(-c4ccc(F)cc4F)c3c2F)C1)C(=O)OC` (stereo not shown) [Compound 8, 2-[4-(3-carboxy-1-benzene(2,4-difluoro)-1,4-dihydro-4-oxo-7-quinolinyl)-1-(3-aminopyrrolidinyl)]-2-butenedioic acid, (E)-1,4-dimethyl ester], the zone of inhibition at 1 µg/mL in experiment [1] stood at 30 mm; in experiment [2], 28 mm; in experiment [3], 32 mm; in experiment [4], 34 mm.

As to `COC(=O)/C=C(\C)NC1CCN(c2c(F)cc3c(=O)c(C(=O)O)cn(C4CC4)c3c2F)C1` (stereo not shown) [Compound 9, 2-[4-(3-carboxy-1-cyclopropyl-6,8-difluoro-1,4-dihydro-4-oxo-7-quinolinyl)-1-(3-aminopyrrolidinyl)]-3-butenoic acid-(E)-1-methyl ester], the zone of inhibition at 1 µg/mL is 24 mm in [1], 32 mm in [2], 23 mm in experiment [3] and 26 mm in [4].

Take `O=C(O)c1cn(C23CC(C2)C3)c2nc(N3CCNCC3)c(F)cc2c1=O` [No. 4, 7-(1-piperazinyl)-1-(bicyclo[1.1.1]pent-1-yl)-1,4-dihydro-6-fluoro-4-oxo-1,8-naphthyridine-3-carboxylic acid]: the MIC in the experiment on Enterobacter cloacae is 0.06 µg/mL (≈ 0.167 µM); in experiment [5], 0.25 µg/mL (≈ 0.698 µM); with Citerobacter freundii it was 0.06 µg/mL (≈ 0.167 µM); in the experiment on Escherichia coli (setting [7]), 0.06 µg/mL (≈ 0.167 µM); in the experiment on Escherichia coli (setting [8]), 0.06 µg/mL (≈ 0.167 µM); with Escherichia coli (setting [9]), 0.06 µg/mL (≈ 0.167 µM). Further, the MIC in the experiment on Escherichia coli (setting [10]) turned out to be 0.06 µg/mL (≈ 0.167 µM); with Klebsiella pneumoniae, 0.125 µg/mL (≈ 0.349 µM); with Proteus penneri, 0.5 µg/mL (≈ 1.4 µM); in the experiment on Pseudomonas aeruginosa (setting [11]), 2 µg/mL (≈ 5.58 µM); in the experiment with Pseudomonas aeruginosa (setting [12]), 1 µg/mL (≈ 2.79 µM); in the experiment on Pseudomonas aeruginosa (setting [13]), 0.5 µg/mL (≈ 1.4 µM). For the same compound, the MIC with Serratia marcescens was found to be 0.25 µg/mL (≈ 0.698 µM); in the experiment on Staphylococcus aureus (setting [14]), 0.25 µg/mL (≈ 0.698 µM); with Staphylococcus aureus (setting [15]), 0.5 µg/mL (≈ 1.4 µM); with Staphylococcus aureus (setting [16]) it was 0.5 µg/mL (≈ 1.4 µM); with Staphylococcus aureus (setting [17]), 0.5 µg/mL (≈ 1.4 µM); in experiment [6], 0.25 µg/mL (≈ 0.698 µM). Moreover, the MIC in the experiment on Streptococcus faecalis, in the experiment on Streptococcus pneumoniae and in the experiment with Streptococcus pyogenes was 2 µg/mL (≈ 5.58 µM) in each case.

Take `CN1CCN(c2c(F)cc3c(=O)c(C(=O)O)cn(C45CC(C4)C5)c3c2F)CC1` [No. 99, 7-(4-methyl-1-piperazinyl)-1-(bicyclo[1.1.1]pent-1-yl)-1,4-dihydro-6,8-difluoro-4-oxo-3-quinolinecarboxylic acid]: the MIC in the experiment with Enterobacter cloacae is 0.25 µg/mL (≈ 0.642 µM); in [5], 0.125 µg/mL (≈ 0.321 µM); in the experiment with Citerobacter freundii, 0.25 µg/mL (≈ 0.642 µM); in the experiment with Escherichia coli (setting [7]) it was 0.25 µg/mL (≈ 0.642 µM); in the experiment with Escherichia coli (setting [8]), 0.255 µg/mL (≈ 0.655 µM); in the experiment with Escherichia coli (setting [9]), 0.25 µg/mL (≈ 0.642 µM). In addition, the MIC in the experiment with Escherichia coli (setting [10]) was 0.125 µg/mL (≈ 0.321 µM); in the experiment with Klebsiella pneumoniae, 0.5 µg/mL (≈ 1.28 µM); in the experiment on Proteus penneri, 2 µg/mL (≈ 5.14 µM); in the experiment with Pseudomonas aeruginosa (setting [11]), 4 µg/mL (≈ 10.3 µM); with Pseudomonas aeruginosa (setting [12]), 4 µg/mL (≈ 10.3 µM); in the experiment with Pseudomonas aeruginosa (setting [13]), 2 µg/mL (≈ 5.14 µM). Also, the MIC in the experiment with Serratia marcescens was found to be 1 µg/mL (≈ 2.57 µM); in the experiment with Staphylococcus aureus (setting [14]), 0.5 µg/mL (≈ 1.28 µM); in the experiment on Staphylococcus aureus (setting [15]), 0.5 µg/mL (≈ 1.28 µM); with Staphylococcus aureus (setting [16]), 0.5 µg/mL (≈ 1.28 µM); with Staphylococcus aureus (setting [17]), 0.5 µg/mL (≈ 1.28 µM); in experiment [6], 0.5 µg/mL (≈ 1.28 µM). The MIC was 4 µg/mL (≈ 10.3 µM) with Streptococcus faecalis, 2 µg/mL (≈ 5.14 µM) in the experiment with Streptococcus pneumoniae and 2 µg/mL (≈ 5.14 µM) in the experiment with Streptococcus pyogenes.
